# Experimental data from paper PMC9721423, “Novel benzo chromene derivatives: design, synthesis, molecular docking, cell cycle arrest, and apoptosis induction in human acute myeloid leukemia HL-60 cells” (Journal of Enzyme Inhibition and Medicinal Chemistry, 2022).
# Where two headings read alike, the source gives them in different places.
# Key:
# Assay in all cases: cells
# Parameters in all cases: species or system NCI-60 human tumour cell lines; NCI-60 five-dose growth inhibition screen, sulforhodamine B protein stain
# ACHN = details: Homo sapiens, ACHN, 48 h
# Method: (§1) All the newly synthesised 28 compounds were selected for single-dose testing. NCI60 single-dose testing is performed in all 60 cell lines according to the reported assay (National Cancer Institute, https://dtp.cancer.gov/) (National Cancer Institute https://dtp.cancer.gov/discovery_development/nci-60/), compounds were dissolved in DMSO: glycerol […] and are stored in a −70 °C freezer. The prepared compounds were added at single concentration of 1 0^−5 M and the culture was incubated for 48 h. End point determinations were made with a protein binding dye, sulforhodamine B (SRB). The human tumour cell lines were derived from nine different cancer types: leukaemia, melanoma, lung, colon, central nervous system (CNS), ovarian, renal, prostate, and breast cancers. Dose–response curves for these compounds were created by plotting the percentage growth (PGs or % growth) against log10 of the corresponding concentration for every cell line. Three response parameters, GI50 (Median Growth Inhibitory Concentration), TGI (Total Growth Inhibitory Concentration), and LC50 (Median Lethal Concentration) were calculated[54] (National Cancer Institute, https://dtp.cancer.gov/discovery_development/nci-60/) (National Cancer Institute, https://dtp.cancer.gov/)[55] for compounds 5a and 6a. […] Furthermore, the average sensitivity of all cell lines towards the compound is termed as the full panel mean graph midpoints (MG-MID). The ratio obtained by dividing the full panel mean graph midpoints (MG-MID) concentration by the individual subpanel MG-MID concentrations (obtained as the average sensitivity of all cell lines of a particular subpanel towards the test compound) is considered a criterion for the compound selectivity towards the corresponding cell line. Ratios greater than 6 indicate high selectivity while ratios between 3 and 6 refer to moderate selectivity whereas compounds not meeting either of these criteria were rated non-selective[56].
# CCRF-CEM = details: Homo sapiens, CCRF-CEM, 48 h
# Method: as §1
# COLO 205 = details: Homo sapiens, COLO 205, 48 h
# Method: as §1
# HL-60(TB) = details: Homo sapiens, HL-60, 48 h
# Method: as §1
# HOP-62 = details: Homo sapiens, HOP-62, 48 h
# Method: as §1
# NCI-H23 = details: Homo sapiens, NCI-H23, 48 h
# Method: as §1
# NCI/ADR-RES = details: Homo sapiens, NCI/ADR-RES, 48 h
# Method: as §1
# OVCAR-8 = details: Homo sapiens, OVCAR-8, 48 h
# Method: as §1
# RPMI-8226 = details: Homo sapiens, RPMI-8226, 48 h
# Method: as §1
# RXF 393 = details: Homo sapiens, RXF 393, 48 h
# Method: as §1
# SF-268 = details: Homo sapiens, SF-268, 48 h
# Method: as §1
# SF-295 = details: Homo sapiens, SF-295, 48 h
# Method: as §1
# SK-MEL-2 = details: Homo sapiens, SK-MEL-2, 48 h
# Method: as §1
# SK-MEL-5 = details: Homo sapiens, SK-MEL-5, 48 h
# Method: as §1
# SN12C = details: Homo sapiens, SN12C, 48 h
# Method: as §1
# SR = details: Homo sapiens, SR, 48 h
# Method: as §1
# UACC-62 = details: Homo sapiens, UACC-62, 48 h
# Method: as §1
smiles,measurement,setting,value
"N=C(NO)C1=C(N)Oc2c(ccc3ccccc23)C1c1ccccc1 (stereo not shown) [5a, 2-Amino-4-phenyl-N-hydroxy-4H-benzo[h]chromene-3-carboxamidine]",GI50,ACHN; read-out: GI50 5a,370 nM
same,GI50,CCRF-CEM; read-out: GI50 5a,380 nM
same,GI50,COLO 205; read-out: GI50 5a,460 nM
same,GI50,HL-60(TB); read-out: GI50 5a,240 nM
same,GI50,HOP-62; read-out: GI50 5a,380 nM
same,GI50,NCI-H23; read-out: GI50 5a,470 nM
same,GI50,NCI/ADR-RES; read-out: GI50 5a,60 nM
same,GI50,OVCAR-8; read-out: GI50 5a,400 nM
same,GI50,RPMI-8226; read-out: GI50 5a,380 nM
same,GI50,RXF 393; read-out: GI50 5a,200 nM
same,GI50,SF-268; read-out: GI50 5a,1320 nM
same,GI50,SF-295; read-out: GI50 5a,300 nM
same,GI50,SK-MEL-2; read-out: GI50 5a,28700 nM
same,GI50,SK-MEL-5,320 nM
same,GI50,SN12C; read-out: GI50 5a,530 nM
same,GI50,SR; read-out: GI50 5a,100 nM
same,GI50,UACC-62; read-out: GI50 5a,50 nM
"CC(=O)NC1=C(C#N)C(c2ccccc2)c2ccc3ccccc3c2O1 (stereo not shown) [6a, N-(3-Cyano-4-phenyl-4H-benzo[h]chromen-2-yl)acetamide]",GI50,ACHN; read-out: GI50 6a,550 nM
same,GI50,CCRF-CEM; read-out: GI50 6a,390 nM
same,GI50,COLO 205; read-out: GI50 6a,610 nM
same,GI50,HL-60(TB); read-out: GI50 6a,290 nM
same,GI50,HOP-62; read-out: GI50 6a,690 nM
same,GI50,NCI-H23; read-out: GI50 6a,730 nM
same,GI50,NCI/ADR-RES; read-out: GI50 6a,300 nM
same,GI50,OVCAR-8; read-out: GI50 6a,630 nM
same,GI50,RPMI-8226; read-out: GI50 6a,410 nM
same,GI50,RXF 393; read-out: GI50 6a,270 nM
same,GI50,SF-268; read-out: GI50 6a,930 nM
same,GI50,SF-295; read-out: GI50 6a,330 nM
same,GI50,SK-MEL-2; read-out: GI50 6a,650 nM
same,GI50,SK-MEL-5; read-out: GI50 6a,360 nM
same,GI50,SN12C; read-out: GI50 6a,700 nM
same,GI50,SR; read-out: GI50 6a,470 nM
same,GI50,UACC-62; read-out: GI50 6a,710 nM
